Here are results for 4 compounds from publication PMC11844072, “Novel 5,6-dichlorobenzimidazole derivatives as dual BRAFWT and BRAFV600E inhibitors: design, synthesis, anti-cancer activity and molecular dynamics simulations” (BMC Chemistry, 2025).

Each structure is given as a SMILES string.

The target in one test is BRAFV600E (Homo sapiens, UniProt P15056, V600E). Set-up: purchased BPS Biosciences 48688. The settings on record: cited from earlier work.
Another test addresses T1, BRAFWT (Homo sapiens, UniProt P15056).
T1 construct: purchased BPS Biosciences 78316
The settings on record: cited from earlier work.

Another test concerns c-KIT. More on the design: method as in PMID 35636123. Particulars: cited from earlier work.
The subject of a further test is PDGFR-β. More on the design: method as in PMID 35636123. The settings on record: cited from earlier work.
Another test deals with FLT-3. Set-up: method as in PMID 35636123. Particulars: cited from earlier work.
The next test has as its target FGFR-1 (Homo sapiens, UniProt P11362). Set-up: purchased. The settings on record: cited from earlier work.
In another test the target is VEGFR-2 (Homo sapiens, UniProt P35968). More on the design: purchased. The settings on record: cited from earlier work.
The test system of the next test is HSF cell line. As to the kind of experiment: Cytotoxicity on HSF normal cell line (SRB assay). The format is cell-based. Particulars: HSF normal human skin fibroblast; mean of three ± SD. Here is the method: The dichlorobenzimidazole derivative 10h was tested in Nawah scientific—Cairo—Egypt for its cytotoxic activity on HSF cell line as stated in the Additional file A [53, 54].
6. Analysis of 10h on HSF normal cell line
Human Skin Fibroblast (HSF) was obtained from Nawah Scientific Inc., (Mokatam, Cairo, Egypt). Cells were maintained in DMEM media supplemented with […] of streptomycin, 100 units/mL of penicillin and 10% of heat-inactivated fetal bovine serum in humidified, 5% (v/v) CO2atmosphere at 37 °C. Cell viability was assessed by SRB assay. Aliquots of 100 μL cell suspension (5x10^3 cells) were in 96-well plates and incubated in complete media for 24 h. Cells were treated with another aliquot of 100 μL media containing drugs at various concentrations.
After drug exposure, cells were fixed by replacing media with 150 μL of 10% TCA and incubated at 4 °C for 1 h. The TCA solution was removed, and the cells were washed 5 times with distilled water. Aliquots of 70 μL SRB solution (0.4% w/v) were added and incubated in a dark place at room temperature for 10 min. Plates were washed 3 times with 1% acetic acid and allowed to air-dry overnight. Then, 150 μL of TRIS (10 mM) was added to dissolve protein-bound SRB stain; the absorbance was measured at 540 nm using an Infinite F50 microplate reader (TECAN, Switzerland).
6.2. Dose response curve of 10h on HSF normal cell line
Figure 66. […]

A further test relates to HepG2 cell line. Set-up: method as in PMID 28505536, PMID 32053964. The settings on record: antiproliferative activity; cited from earlier work.

Sequence of BRAFV600E (P15056 whole entry V600E): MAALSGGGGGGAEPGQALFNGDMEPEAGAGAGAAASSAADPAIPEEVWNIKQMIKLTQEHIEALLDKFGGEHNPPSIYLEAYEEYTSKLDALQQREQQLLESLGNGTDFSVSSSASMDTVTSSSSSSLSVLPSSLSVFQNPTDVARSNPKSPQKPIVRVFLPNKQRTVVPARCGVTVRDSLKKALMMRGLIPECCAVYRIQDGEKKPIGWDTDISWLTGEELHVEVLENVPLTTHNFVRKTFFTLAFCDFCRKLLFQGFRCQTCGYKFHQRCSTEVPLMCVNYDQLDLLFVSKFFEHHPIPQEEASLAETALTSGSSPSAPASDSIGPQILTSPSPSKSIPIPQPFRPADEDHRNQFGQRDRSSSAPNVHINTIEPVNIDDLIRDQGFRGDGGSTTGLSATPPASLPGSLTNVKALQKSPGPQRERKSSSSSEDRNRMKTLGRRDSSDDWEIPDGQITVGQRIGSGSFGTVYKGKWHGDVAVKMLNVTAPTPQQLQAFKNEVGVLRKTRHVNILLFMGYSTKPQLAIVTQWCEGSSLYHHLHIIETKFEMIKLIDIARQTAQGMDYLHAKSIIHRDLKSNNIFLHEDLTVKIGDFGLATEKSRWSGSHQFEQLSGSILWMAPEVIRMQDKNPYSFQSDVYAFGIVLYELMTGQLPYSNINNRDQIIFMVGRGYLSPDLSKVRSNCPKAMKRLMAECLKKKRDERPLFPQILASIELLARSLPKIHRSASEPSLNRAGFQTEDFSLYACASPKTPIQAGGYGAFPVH
T1 sequence (P15056 whole entry): as the sequence (P15056 whole entry V600E) above, with E600V counted along it
Sequence of VEGFR-2 (P35968 20-1356): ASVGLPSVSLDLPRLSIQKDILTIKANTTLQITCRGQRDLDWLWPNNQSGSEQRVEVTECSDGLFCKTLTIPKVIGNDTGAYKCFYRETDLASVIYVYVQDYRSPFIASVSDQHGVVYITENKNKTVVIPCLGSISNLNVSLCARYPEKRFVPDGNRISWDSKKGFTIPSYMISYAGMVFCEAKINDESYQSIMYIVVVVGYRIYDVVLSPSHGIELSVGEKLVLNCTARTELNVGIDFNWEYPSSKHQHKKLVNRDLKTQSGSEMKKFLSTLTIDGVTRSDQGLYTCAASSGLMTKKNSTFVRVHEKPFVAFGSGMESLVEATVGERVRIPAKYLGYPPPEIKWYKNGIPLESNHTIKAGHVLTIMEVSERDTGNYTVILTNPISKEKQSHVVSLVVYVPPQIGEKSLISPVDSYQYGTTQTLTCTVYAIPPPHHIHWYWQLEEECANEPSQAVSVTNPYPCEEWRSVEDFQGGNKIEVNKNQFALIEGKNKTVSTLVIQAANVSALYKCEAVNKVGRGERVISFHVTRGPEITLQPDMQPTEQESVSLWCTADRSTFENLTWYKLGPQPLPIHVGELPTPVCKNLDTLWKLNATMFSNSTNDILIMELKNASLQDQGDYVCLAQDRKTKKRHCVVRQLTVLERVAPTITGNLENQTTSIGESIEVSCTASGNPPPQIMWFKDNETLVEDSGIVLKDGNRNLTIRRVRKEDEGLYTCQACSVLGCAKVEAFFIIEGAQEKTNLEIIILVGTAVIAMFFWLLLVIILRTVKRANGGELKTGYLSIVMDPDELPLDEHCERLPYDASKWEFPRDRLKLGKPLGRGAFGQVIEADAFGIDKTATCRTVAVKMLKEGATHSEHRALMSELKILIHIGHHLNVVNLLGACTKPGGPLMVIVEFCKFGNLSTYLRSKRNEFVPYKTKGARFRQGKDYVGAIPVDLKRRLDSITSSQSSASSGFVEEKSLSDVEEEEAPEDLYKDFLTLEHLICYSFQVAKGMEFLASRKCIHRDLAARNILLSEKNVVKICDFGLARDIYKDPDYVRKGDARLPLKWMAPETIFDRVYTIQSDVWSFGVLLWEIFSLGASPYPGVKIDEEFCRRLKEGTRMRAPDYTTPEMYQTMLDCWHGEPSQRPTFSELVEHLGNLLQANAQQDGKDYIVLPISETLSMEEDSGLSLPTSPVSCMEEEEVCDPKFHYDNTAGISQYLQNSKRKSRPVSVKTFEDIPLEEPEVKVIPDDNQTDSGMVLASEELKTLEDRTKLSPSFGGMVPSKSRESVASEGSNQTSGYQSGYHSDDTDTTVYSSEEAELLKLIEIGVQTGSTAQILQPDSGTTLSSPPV
Sequence of FGFR-1 (P11362 22-822): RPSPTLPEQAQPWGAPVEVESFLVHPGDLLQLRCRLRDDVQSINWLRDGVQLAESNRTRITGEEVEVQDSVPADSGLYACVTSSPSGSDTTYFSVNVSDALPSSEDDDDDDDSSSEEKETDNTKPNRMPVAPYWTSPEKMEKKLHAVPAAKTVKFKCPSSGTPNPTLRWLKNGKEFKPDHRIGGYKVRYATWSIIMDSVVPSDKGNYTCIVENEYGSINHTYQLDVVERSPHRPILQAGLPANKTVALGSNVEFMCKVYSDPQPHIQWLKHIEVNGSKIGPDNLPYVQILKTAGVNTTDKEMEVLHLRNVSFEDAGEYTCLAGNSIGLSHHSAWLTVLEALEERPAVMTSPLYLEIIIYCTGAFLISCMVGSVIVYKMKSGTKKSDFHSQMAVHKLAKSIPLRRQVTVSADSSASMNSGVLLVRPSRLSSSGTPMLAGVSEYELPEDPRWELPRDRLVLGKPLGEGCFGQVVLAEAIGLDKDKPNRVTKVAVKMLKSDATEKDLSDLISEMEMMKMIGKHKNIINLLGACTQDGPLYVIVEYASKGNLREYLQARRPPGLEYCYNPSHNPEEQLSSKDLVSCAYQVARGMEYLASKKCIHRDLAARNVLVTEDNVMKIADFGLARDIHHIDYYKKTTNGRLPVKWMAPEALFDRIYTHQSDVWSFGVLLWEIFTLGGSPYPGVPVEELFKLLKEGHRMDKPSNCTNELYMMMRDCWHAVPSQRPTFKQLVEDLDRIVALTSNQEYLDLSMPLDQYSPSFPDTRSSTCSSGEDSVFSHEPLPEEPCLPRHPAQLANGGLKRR

With `Cc1ccc(-n2c(SCC(=O)Nc3ccc(-c4nc5ccccc5[nH]4)cc3)nc3ccccc3c2=O)cc1` [III], the IC50 – broadly, the concentration at which inhibition is half-maximal – is 2470 nM at BRAFV600E; 6740 nM on BRAFWT; 120 nM with c-KIT; 30 nM in the test on PDGFR-β; 130 nM in the test on FLT-3.
On to `O=C1Nc2ccc(Br)cc2/C1=N\NC(=O)c1ccc2[nH]c(-c3ccccc3)nc2c1` [IV], for which the IC50 at BRAFV600E was 1520 nM; at BRAFWT it was 20 nM; on FGFR-1, 1650 nM; on VEGFR-2, 180 nM.
In the test with HSF cell line, `CNC(=O)c1cc(Oc2ccc(NC(=O)Nc3ccc(Cl)c(C(F)(F)F)c3)cc2)ccn1` [Sorafenib, reference compound] gave an IC50 of 2250 ± 140 nM.
Turning to `CC(C)c1nc2ccccc2n1CC(=O)N/N=C/c1cccc(OCc2ccccc2)c1` [V], in the test on HepG2 cell line, the half-maximal inhibitory concentration (IC50) is 1980 nM.
